Experimental data: US11691972B2, “Compounds for targeted degradation of BRD9” (C4 Therapeutics, Inc., priority 2020, dated 2023)

The compounds below were run against T1, BRD9 (Homo sapiens, UniProt Q9H8M2) (assay: HiBiT BRD9 degradation assay in 293T.166 (BRD9-HiBiT) cells). Conditions: Table 1; 293T.166 cells, 2.0 hours; class symbols; read-out: HiBiT-Degradation 293T.166 BRD9 2.0 hours (DC50).
T1 sequence (Q9H8M2 1-597): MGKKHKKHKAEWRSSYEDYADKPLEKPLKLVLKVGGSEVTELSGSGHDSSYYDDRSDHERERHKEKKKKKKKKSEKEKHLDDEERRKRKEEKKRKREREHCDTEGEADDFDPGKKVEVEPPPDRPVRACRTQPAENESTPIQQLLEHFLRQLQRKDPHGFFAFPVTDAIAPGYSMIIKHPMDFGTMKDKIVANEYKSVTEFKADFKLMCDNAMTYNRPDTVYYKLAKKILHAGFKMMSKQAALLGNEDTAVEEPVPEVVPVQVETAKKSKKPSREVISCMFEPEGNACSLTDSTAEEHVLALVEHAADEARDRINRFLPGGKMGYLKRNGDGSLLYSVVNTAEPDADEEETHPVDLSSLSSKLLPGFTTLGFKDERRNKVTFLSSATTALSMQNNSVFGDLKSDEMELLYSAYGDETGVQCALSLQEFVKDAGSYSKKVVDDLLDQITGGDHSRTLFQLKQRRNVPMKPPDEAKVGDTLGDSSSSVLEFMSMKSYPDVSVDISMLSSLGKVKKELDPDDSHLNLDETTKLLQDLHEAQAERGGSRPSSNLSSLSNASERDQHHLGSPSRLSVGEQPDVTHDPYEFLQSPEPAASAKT
Assay type: cell-based
Parameters: endogenously expressing BRD9 with HiBiT fusion tag via CRISPR; host or cells: 293T.166 (BRD9-HiBiT), also expressing LgBiT ectopically
In short: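 293T.166 cells carrying endogenous CRISPR BRD9-HiBiT and expressing LgBiT treated 2 h at 37° C. with compounds, 11-point half-log titration from 10 μM in duplicate. Remaining BRD9 measured as lytic HiBiT luminescence; untreated cells as negative control, no-reagent wells as positive control.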
Compound `COc1cc(-c2cn(C)c(=O)c3cnccc23)cc(Cl)c1CN1CCC(N2CCC(c3ccc(NC4CCC(=O)NC4=O)cc3F)CC2)C(F)(F)C1` (stereo not shown) [Compound 201] has a DC50 of less than 100 nM.
Work on `COc1cc(-c2cn(C)c(=O)c3ccccc23)cc(Cl)c1CN1CCC(N2CCC(c3ccc(NC4CCC(=O)NC4=O)cc3F)CC2)C(F)(F)C1` (stereo not shown) [Compound 202] yielded a DC50 of less than 100 nM.
`COc1cc(-c2cn(C)c(=O)c3[nH]ncc23)cc(OC)c1CNc1ccc(CC2CCN(c3ccc(NC4CCC(=O)NC4=O)cc3)CC2)cc1` (stereo not shown) [Compound 205, 3-[4-[4-[[4-[[2,6-dimethoxy-4-(6-methyl-7-oxo-1H-pyrazolo[3,4-c]pyridin-4-yl)phenyl]methylamino]phenyl]methyl]-1-piperidyl]anilino]piperidine-2,6-dione] was tested, and the DC50 was less than 100 nM.
Compound `COc1cc(-c2cn(C)c(=O)c3[nH]ncc23)cc(OC)c1CN1CCc2cc(N3CCC(c4ccc(NC5CCC(=O)NC5=O)cc4)CC3)ccc2C1` (stereo not shown) [Compound 206, 3-[4-[1-[2-[[2,6-dimethoxy-4-(6-methyl-7-oxo-1H-pyrazolo[3,4-c]pyridin-4-yl)phenyl]methyl]-3,4-dihydro-1H-isoquinolin-6-yl]-4-piperidyl]anilino]piperidine-2,6-dione] has a DC50 of less than 100 nM.
`COc1cc(-c2cn(C)c(=O)c3[nH]ncc23)cc(OC)c1Cc1ccc(CC(=O)N2CCC(c3ccc(NC4CCC(=O)NC4=O)cc3)CC2)cc1` (stereo not shown) [Compound 207, 3-[4-[1-[2-[4-[[2,6-dimethoxy-4-(6-methyl-7-oxo-1H-pyrazolo[3,4-c]pyridin-4-yl)phenyl]methyl]phenyl]acetyl]-4-piperidyl]anilino]piperidine-2,6-dione] showed a DC50 of less than 100 nM.
`COc1cc(-c2cn(C)c(=O)c(C)c2C)cc(Cl)c1C(=O)N1CCC(C2CCN(c3ccc(NC4CCC(=O)NC4=O)cc3F)CC2)CC1` (stereo not shown) [Compound 208, 3-[4-[4-[1-[2-chloro-6-methoxy-4-(1,4,5-trimethyl-6-oxo-3-pyridyl)benzoyl]-4-piperidyl]-1-piperidyl]-3-fluoro-anilino]piperidine-2,6-dione] showed a DC50 of less than 100 nM.
Work on `COc1cc(-c2cn(C)c(=O)c3cnccc23)cc(Cl)c1C(=O)N1CCC(C2CCN(c3ccc(NC4CCC(=O)NC4=O)cc3F)CC2)CC1` (stereo not shown) [Compound 209] yielded a DC50 of less than 100 nM.
`Cn1cc(-c2ccc(C(=O)N3CCC(C4CCN(c5ccc(NC6CCC(=O)NC6=O)cc5F)CC4)CC3)c(OC(F)(F)F)c2)c2ccncc2c1=O` (stereo not shown) [Compound 211] was tested, and the DC50 was less than 100 nM.
For `Cc1c(-c2ccc(C(=O)N3CCC(C4CCN(c5ccc(NC6CCC(=O)NC6=O)cc5F)CC4)CC3)c(OC(F)(F)F)c2)cn(C)c(=O)c1C` (stereo not shown) [Compound 212, 3-[3-fluoro-4-[4-[1-[2-(trifluoromethoxy)-4-(1,4,5-trimethyl-6-oxo-3-pyridyl)benzoyl]-4-piperidyl]-1-piperidyl]anilino]piperidine-2,6-dione], the DC50 was less than 100 nM.
In the case of `COc1cc(-c2cn(C)c(=O)c3cnccc23)cc(F)c1C(=O)N1CCC(C2CCN(c3ccc(NC4CCC(=O)NC4=O)cc3F)CC2)CC1` (stereo not shown) [Compound 215], the DC50 is reported as less than 100 nM.
In the case of `COc1cc(-c2cn(C)c(=O)c3[nH]ncc23)cc(Cl)c1C(=O)N1CCC(C2CCN(c3ccc(NC4CCC(=O)NC4=O)cc3F)CC2)CC1` (stereo not shown) [Compound 216], the DC50 is reported as less than 100 nM.
`Cc1c(-c2ccc(C(=O)N3CCC(C4CCN(c5ccc(NC6CCC(=O)NC6=O)cc5F)CC4)CC3)c3[nH]ccc23)cn(C)c(=O)c1C` (stereo not shown) [Compound 217] gave a DC50 of less than 100 nM.
`COc1cc(-c2cn(C)c(=O)c(C)c2C)cc(Cl)c1C(=O)N1CCC(C2CCN(c3ccc(NC4CCC(=O)NC4=O)cn3)CC2)CC1` (stereo not shown) [Compound 218, 3-[[6-[4-[1-[2-chloro-6-methoxy-4-(1,4,5-trimethyl-6-oxo-3-pyridyl)benzoyl]-4-piperidyl]-1-piperidyl]-3-pyridyl]amino]piperidine-2,6-dione] gave a DC50 of less than 100 nM.
Work on `COc1cc(-c2cn(C)c(=O)c3[nH]ncc23)cc(Cl)c1C(=O)N1CCC(C2CCN(c3ccc(NC4CCC(=O)NC4=O)cn3)CC2)CC1` (stereo not shown) [Compound 220] yielded a DC50 of less than 100 nM.
`COc1cc(-c2cn(C)c(=O)c3cnccc23)cc(Cl)c1C(=O)N1CCC(C2CCN(c3ccc(NC4CCC(=O)NC4=O)nc3)CC2)CC1` (stereo not shown) [Compound 221] was tested, and the DC50 was less than 100 nM.
`COc1cc(-c2cn(C)c(=O)c3[nH]ncc23)cc(Cl)c1C(=O)N1CCC(C2CCN(c3ccc(NC4CCC(=O)NC4=O)nc3)CC2)CC1` (stereo not shown) [Compound 222] was tested, and the DC50 was less than 100 nM.
For `Cc1c(-c2ccc(C(=O)N3CCC(N4CCN(c5ccc(NC6CCC(=O)NC6=O)cc5F)CC4)C(F)(F)C3)c(OC(F)(F)F)c2)cn(C)c(=O)c1C` (stereo not shown) [Compound 223], the DC50 was less than 100 nM.
For `COc1cc(-c2cn(C)c(=O)c3cnccc23)cc(Cl)c1C(=O)N1CCC(N2CCN(c3ccc(NC4CCC(=O)NC4=O)cc3F)CC2)C(F)(F)C1` (stereo not shown) [Compound 224], the DC50 was less than 100 nM.
`COc1cc(-c2cn(C)c(=O)c3cnccc23)cc(OC)c1C(=O)N1CCC(N2CCN(c3ccc(NC4CCC(=O)NC4=O)cc3F)CC2)C(F)(F)C1` (stereo not shown) [Compound 225] showed a DC50 of less than 100 nM.
Work on `COc1cc(-c2cn(C)c(=O)c3cnccc23)cc(F)c1C(=O)N1CCC(N2CCN(c3ccc(NC4CCC(=O)NC4=O)cc3F)CC2)C(F)(F)C1` (stereo not shown) [Compound 226] yielded a DC50 of less than 100 nM.
`Cn1cc(-c2ccc(C(=O)N3CCC(N4CCN(c5ccc(NC6CCC(=O)NC6=O)cc5F)CC4)C(F)(F)C3)c(OC(F)(F)F)c2)c2ccncc2c1=O` (stereo not shown) [Compound 227] showed a DC50 of less than 100 nM.
`COc1cc(-c2cn(C)c(=O)c3cnccc23)cc(Cl)c1C(=O)N1CCC(N2CCC(c3ccc(NC4CCC(=O)NC4=O)cc3)C(F)(F)C2)CC1` (stereo not shown) [Compound 228] gave a DC50 of less than 100 nM.
`COc1cc(-c2cn(C)c(=O)c(C)c2C)cc(Cl)c1C(=O)N1CCC(N2CCC(c3ccc(NC4CCC(=O)NC4=O)cc3)C(F)(F)C2)CC1` (stereo not shown) [Compound 229] was tested, and the DC50 was less than 100 nM.
`COc1cc(-c2cn(C)c(=O)c3cnccc23)cc(Cl)c1CN1CCC(N2CCN(c3ccc(OC4CCC(=O)NC4=O)cc3F)CC2)C(F)(F)C1` (stereo not shown) [Compound 230, 3-[4-[4-[1-[[2-chloro-6-methoxy-4-(2-methyl-1-oxo-2,7-naphthyridin-4-yl)phenyl]methyl]-3,3-difluoro-4-piperidyl]piperazin-1-yl]-3-fluoro-phenoxy]piperidine-2,6-dione] gave a DC50 of less than 100 nM.
`COc1cc(-c2cn(C)c(=O)c3cnccc23)cc(OC)c1CN1CCc2cc(C3CCN(c4ccc(NC5CCC(=O)NC5=O)cc4C(F)(F)F)CC3)ccc2C1` (stereo not shown) [Compound 231, 3-[4-[4-[2-[[2,6-dimethoxy-4-(2-methyl-1-oxo-2,7-naphthyridin-4-yl)phenyl]methyl]-3,4-dihydro-1H-isoquinolin-6-yl]-1-piperidyl]-3-(trifluoromethyl)anilino]piperidine-2,6-dione] showed a DC50 of less than 100 nM.
In the case of `COc1cc(-c2cn(C)c(=O)c3cnccc23)cc(Cl)c1C(=O)N1CCC(CC(=O)N2CCC(c3ccc(NC4CCC(=O)NC4=O)cc3)CC2)CC1` (stereo not shown) [Compound 232, 3-[4-[1-[2-[1-[2-chloro-6-methoxy-4-(2-methyl-1-oxo-2,7-naphthyridin-4-yl)benzoyl]-4-piperidyl]acetyl]-4-piperidyl]anilino]piperidine-2,6-dione], the DC50 is reported as less than 100 nM.
In the case of `COc1cc(-c2cn(C)c(=O)c3[nH]ncc23)cc(Cl)c1C(=O)N1CCC(CC(=O)N2CCC(c3ccc(NC4CCC(=O)NC4=O)cc3)CC2)CC1` (stereo not shown) [Compound 233], the DC50 is reported as less than 100 nM.
`COc1cc(-c2cn(C)c(=O)c3cnccc23)cc(OC)c1C(=O)N1Cc2cccc(CC3CCN(c4ccc(NC5CCC(=O)NC5=O)cc4F)CC3)c2C(F)(F)C1` (stereo not shown) [Compound 234] gave a DC50 of less than 100 nM.
